From patent US20250129070A1, “BIFUNCTIONAL ANDROGEN RECEPTOR COMPOUNDS” (priority 2023, published 2025)

Each molecule was assayed on AR / CBP ternary complex (assay: Ternary complex formation assay (sandwich ELISA, AR capture / CBP detection) in VCaP cell lysates). Settings: 1.5 hours treatment, sandwich ELISA (AR capture, CBP or p300 detection).
Format: cell-based
Method: Preparation of Mouse Anti-AR Antibody Coated 96 Well Plates
Black MaxiSorp plates: coat with 50 μL of mouse 1/50 diluted AR antibody (Monoclonal Antibody (AR 441 from Thermo Fisher); diluted in phosphate buffered saline (PBS). Spin the liquid to the bottom of the wells, if necessary. Incubate overnight at 4° C. Next day, wash 3 times with 200 μL of TBST. Block with 200 μL of blocking buffer (5% BSA in TBST) at room temperature for 2 hours (BSA: A4503 or A2153 from Sigma). Wash plates 3 times with TBST. Plates are ready for lysates Preparation of dimerizer treated lysates
Culture cells in 96 wells at 50K VCaP cells/well for at least 3 days. Plate in 5% Omega charcoal stripped FBS in total volume of 200 uL. Treat with bifunctional for 1.5 hours by adding 1 μL of 200× stock in DMSO. Aspirate media/compound. Add and pipet-to-mix 70 μL of 1× AlphaLisa Lysis Buffer to each well (Perkin Elmer, AlphaLISA SureFire Ultra, diluted in water). Pipet up and down when adding lysis buffer to disrupt cells. Let lysis proceed for 30 min at 4° C.
Incubate for 1 hour at room temperature. Flick out the lysates. Wash 3 times with TBST. Add 75 μL of rabbit CBP or p300 antibody to each well (diluted 1:5000 in blocking buffer (5% BSA in TBST). CBP antibody: (D6C5) Rabbit mAb #7389; p300 antibody: (D8Z4E) Rabbit mAb #86377. Incubate overnight at 4° C. Wash 3 times with 300 uL TBST, each time on shaker for 5-10 min. Prepare goat anti-rabbit antibody conjugated to HRP (1/100K dilution in blocking buffer) Invitrogen Catalog number: 32260. Add 75 μL of HRP-conjugated goat anti-rabbit antibody. Incubate at room temperature for 1 hour. Flick out the HRP-antibody mixture. Wash 7-8 times with TBST, each time on shaker for 10 min. Later washes try to overflow the wells so that no residual HRP remains bound to the sides of the well. Prepare and add 75 uL/well of QuantaRed Enhance Chemifluorescent HRP Substrate solution. Immediately read fluorescence on BMG ClarioStar (ex: 570/em 585), and repeat the read in 5 minutes and 15 minutes.

Row | SMILES | EC50
1 | COc1cc(OC2C(C)(C)C(NC(=O)c3ccc(N4CCC(C5CCC(n6nc(N7CCCc8cc(-c9cnn(C)c9)c(C(F)F)cc87)c7c6CCN(C(C)=O)C7)CC5)CC4)cc3)C2(C)C)ccc1C#N (centres unmarked) [Compound 258, 4-[4-[4-[5-acetyl-3-[7-(difluoromethyl)-6-(1-methylpyrazol-4-yl)-3,4-dihydro-2H-quinolin-1-yl]-6,7-dihydro-4H-pyrazolo[4,3-c]pyridin-1-yl]cyclohexyl]-1-piperidyl]-N-[3-(4-cyano-3-methoxy-phenoxy)-2,2,4,4-tetramethyl-cyclobutyl]benzamide] | 1 to 10 nM
2 | CC(=O)N1CCc2c(c(N3CCCc4cc(-c5cnn(C)c5)c(C(F)F)cc43)nn2C2CCN(C(=O)C3CCN(c4ccc(C(=O)NC5C(C)(C)C(Oc6ccc(C#N)c(Cl)c6)C5(C)C)cn4)CC3)CC2)C1 (centres unmarked) [Compound 115, 6-[4-[4-[5-acetyl-3-[7-(difluoromethyl)-6-(1-methylpyrazol-4-yl)-3,4-dihydro-2H-quinolin-1-yl]-6,7-dihydro-4H-pyrazolo[4,3-c]pyridin-1-yl]piperidine-1-carbonyl]-1-piperidyl]-N-[3-(3-chloro-4-cyano-phenoxy)-2,2,4,4-tetramethyl-cyclobutyl]pyridine-3-carboxamide] | < 1 nM
3 | COc1cc(OC2C(C)(C)C(NC(=O)c3ccc(N4CC5(CCC(N6CCC(n7nc(N8CCCc9cc(-c%10cncs%10)c(C(F)F)cc98)c8c7CCN(C(C)=O)C8)CC6)CC5)C4)cc3)C2(C)C)ccc1C#N (centres unmarked) [Compound 428, 4-[7-[4-[5-acetyl-3-[7-(difluoromethyl)-6-thiazol-5-yl-3,4-dihydro-2H-quinolin-1-yl]-6,7-dihydro-4H-pyrazolo[4,3-c]pyridin-1-yl]-1-piperidyl]-2-azaspiro[3.5]nonan-2-yl]-N-[3-(4-cyano-3-methoxy-phenoxy)-2,2,4,4-tetramethyl-cyclobutyl]benzamide] | < 1 nM
4 | CC(=O)N1CCc2c(c(N3CCCc4cc(-c5cnn(C)c5)c(C(F)F)cc43)nn2C2CCN(C3CCC4(C3)CN(c3ncc(C(=O)NC5C(C)(C)C(Oc6ccc(C#N)c(Cl)c6)C5(C)C)cn3)C4)CC2)C1 (centres unmarked) [Compound 344, 2-[6-[4-[5-acetyl-3-[7-(difluoromethyl)-6-(1-methylpyrazol-4-yl)-3,4-dihydro-2H-quinolin-1-yl]-6,7-dihydro-4H-pyrazolo[4,3-c]pyridin-1-yl]-1-piperidyl]-2-azaspiro[3.4]octan-2-yl]-N-[3-(3-chloro-4-cyano-phenoxy)-2,2,4,4-tetramethyl-cyclobutyl]pyrimidine-5-carboxamide] | < 1 nM
5 | CC(=O)N1CCc2c(c(N3CCCc4cc(-c5cnn(C)c5)c(C(F)F)cc43)nn2C2CN(CCN3CCN(c4ncc(C(=O)NC5C(C)(C)C(Oc6ccc(C#N)c(Cl)c6)C5(C)C)cn4)CC3)C2)C1 (centres unmarked) [Compound 161, 2-[4-[2-[3-[5-acetyl-3-[7-(difluoromethyl)-6-(1-methylpyrazol-4-yl)-3,4-dihydro-2H-quinolin-1-yl]-6,7-dihydro-4H-pyrazolo[4,3-c]pyridin-1-yl]azetidin-1-yl]ethyl]piperazin-1-yl]-N-[3-(3-chloro-4-cyano-phenoxy)-2,2,4,4-tetramethyl-cyclobutyl]pyrimidine-5-carboxamide] | 10 to 100 nM
6 | CC(=O)N1CCc2c(c(N3CCCc4cc(-c5cncs5)c(C(F)F)cc43)nn2C2CCN(CC3C(C)CN(c4ncc(C(=O)NC5C(C)(C)C(Oc6ccc(C#N)c(Cl)c6)C5(C)C)cn4)CC3C)CC2)C1 (centres unmarked) [Compound 422, 2-[4-[[4-[5-acetyl-3-[7-(difluoromethyl)-6-thiazol-5-yl-3,4-dihydro-2H-quinolin-1-yl]-6,7-dihydro-4H-pyrazolo[4,3-c]pyridin-1-yl]-1-piperidyl]methyl]-3,5-dimethyl-1-piperidyl]-N-[3-(3-chloro-4-cyano-phenoxy)-2,2,4,4-tetramethyl-cyclobutyl]pyrimidine-5-carboxamide] | < 1 nM
7 | CC(=O)N1CCc2c(c(N3CCCc4cc(-c5cnco5)c(C(F)F)cc43)nn2C2CCN(CC3C(C)CN(c4ncc(C(=O)NC5C(C)(C)C(Oc6ccc(C#N)c(Cl)c6)C5(C)C)cn4)CC3C)CC2)C1 (centres unmarked) [Compound 424, 2-[4-[[4-[5-acetyl-3-[7-(difluoromethyl)-6-oxazol-5-yl-3,4-dihydro-2H-quinolin-1-yl]-6,7-dihydro-4H-pyrazolo[4,3-c]pyridin-1-yl]-1-piperidyl]methyl]-3,5-dimethyl-1-piperidyl]-N-[3-(3-chloro-4-cyano-phenoxy)-2,2,4,4-tetramethyl-cyclobutyl]pyrimidine-5-carboxamide] | < 1 nM
8 | CC(=O)N1CCc2c(c(N3CCCc4cc(-c5cnn(C)c5)c(C(F)F)cc43)nn2C2CN(C(=O)CC3CCN(c4ncc(C(=O)NC5C(C)(C)C(Oc6ccc(C#N)c(Cl)c6)C5(C)C)cn4)CC3)C2)C1 (centres unmarked) [Compound 163, 2-[4-[2-[3-[5-acetyl-3-[7-(difluoromethyl)-6-(1-methylpyrazol-4-yl)-3,4-dihydro-2H-quinolin-1-yl]-6,7-dihydro-4H-pyrazolo[4,3-c]pyridin-1-yl]azetidin-1-yl]-2-oxo-ethyl]-1-piperidyl]-N-[3-(3-chloro-4-cyano-phenoxy)-2,2,4,4-tetramethyl-cyclobutyl]pyrimidine-5-carboxamide] | < 1 nM
9 | CC(=O)N1CCc2c(c(N3CCCc4cc(-c5cnn(C)c5)c(C(F)F)cc43)nn2C2CCN(C3CCC(Oc4ncc(C(=O)NC5C(C)(C)C(Oc6ccc(C#N)c(Cl)c6)C5(C)C)cn4)CC3)CC2)C1 (centres unmarked) [Compound 382, 2-[4-[4-[5-acetyl-3-[7-(difluoromethyl)-6-(1-methylpyrazol-4-yl)-3,4-dihydro-2H-quinolin-1-yl]-6,7-dihydro-4H-pyrazolo[4,3-c]pyridin-1-yl]-1-piperidyl]cyclohexoxy]-N-[3-(3-chloro-4-cyano-phenoxy)-2,2,4,4-tetramethyl-cyclobutyl]pyrimidine-5-carboxamide] | < 1 nM

Continued, values first:

Row | EC50 | SMILES
10 | < 1 nM | COc1cc(OC2C(C)(C)C(NC(=O)c3ccc(N4CC5(CCC(N6CCC(n7nc(N8CCCc9cc(-c%10cnn(C)c%10)c(C(F)F)cc98)c8c7CCN(C(C)=O)C8)CC6)C5)C4)cc3)C2(C)C)ccc1C#N (centres unmarked) [Compound 345, 4-[6-[4-[5-acetyl-3-[7-(difluoromethyl)-6-(1-methylpyrazol-4-yl)-3,4-dihydro-2H-quinolin-1-yl]-6,7-dihydro-4H-pyrazolo[4,3-c]pyridin-1-yl]-1-piperidyl]-2-azaspiro[3.4]octan-2-yl]-N-[3-(4-cyano-3-methoxy-phenoxy)-2,2,4,4-tetramethyl-cyclobutyl]benzamide]
11 | < 1 nM | CC(=O)N1CCc2c(c(N3CCCc4cc(-c5cnn(C)c5)c(C(F)F)cc43)nn2C2CN(C(=O)C3CCN(c4ncc(C(=O)NC5C(C)(C)C(Oc6ccc(C#N)c(Cl)c6)C5(C)C)cn4)CC3)C2)C1 (centres unmarked) [Compound 119, 2-[4-[3-[5-acetyl-3-[7-(difluoromethyl)-6-(1-methylpyrazol-4-yl)-3,4-dihydro-2H-quinolin-1-yl]-6,7-dihydro-4H-pyrazolo[4,3-c]pyridin-1-yl]azetidine-1-carbonyl]-1-piperidyl]-N-[3-(3-chloro-4-cyano-phenoxy)-2,2,4,4-tetramethyl-cyclobutyl]pyrimidine-5-carboxamide]
12 | < 1 nM | CC(=O)N1CCc2c(c(N3CCCc4cc(-c5cnn(C)c5)c(C(F)F)cc43)nn2C2CCC(N3CCN(c4ncc(C(=O)NC5C(C)(C)C(Oc6ccc(C#N)c(Cl)c6)C5(C)C)cn4)CC3)CC2)C1 (centres unmarked) [Compound 391, 2-[4-[4-[5-acetyl-3-[7-(difluoromethyl)-6-(1-methylpyrazol-4-yl)-3,4-dihydro-2H-quinolin-1-yl]-6,7-dihydro-4H-pyrazolo[4,3-c]pyridin-1-yl]cyclohexyl]piperazin-1-yl]-N-[3-(3-chloro-4-cyano-phenoxy)-2,2,4,4-tetramethyl-cyclobutyl]pyrimidine-5-carboxamide]
13 | < 1 nM | COc1cc(OC2C(C)(C)C(NC(=O)c3ccc(N4CC(C)C(CN5CCC(n6nc(N7CCCc8cc(C#N)c(C)cc87)c7c6CCN(C(C)=O)C7)CC5)C(C)C4)cc3)C2(C)C)ccc1C#N (centres unmarked) [Compound 457, 4-[4-[[4-[5-acetyl-3-(6-cyano-7-methyl-3,4-dihydro-2H-quinolin-1-yl)-6,7-dihydro-4H-pyrazolo[4,3-c]pyridin-1-yl]-1-piperidyl]methyl]-3,5-dimethyl-1-piperidyl]-N-[3-(4-cyano-3-methoxy-phenoxy)-2,2,4,4-tetramethyl-cyclobutyl]benzamide]
14 | < 1 nM | CC(=O)N1CCc2c(c(-c3cccc4cc(-c5ccc(CC6CCN(c7ncc(C(=O)NC8C(C)(C)C(Oc9ccc(C#N)c(Cl)c9)C8(C)C)cn7)CC6)nc5)ncc34)nn2C2CCOCC2)C1 (centres unmarked) [Compound 140, 2-[4-[[5-[8-(5-acetyl-1-tetrahydropyran-4-yl-6,7-dihydro-4H-pyrazolo[4,3-c]pyridin-3-yl)-3-isoquinolyl]-2-pyridyl]methyl]-1-piperidyl]-N-[3-(3-chloro-4-cyano-phenoxy)-2,2,4,4-tetramethyl-cyclobutyl]pyrimidine-5-carboxamide]
